Laboratory results: paper PMC12650660, “Novel Synthetic Strategies Towards Analogues of Cadaside and Malacidin Antibiotic Peptides” (Biomolecules, 2025)
≈ marks a conversion by molar mass, not a printed value. Entries after “also recorded” stand apart in the source; their conditions may differ. Numbered stars: 1 amine (or outer) side, 2 acyl side, 3 side chain; on linkers, the order of the positions; unused ones are H or OH. Bridge positions count the residues as written; N and C are the ends. Square brackets hold non-standard residues; d marks the D form. Peptide text beside a SMILES is read from it. * marks the point of attachment. β2hAla(R) = C[C@H](CN[*:1])C(=O)[*:2]; Decanoyl = CCCCCCCCCC(=O)*; Dap = NC[C@H](N)C(=O)O; Sar = CNCC(=O)O

How the values were obtained:
[1] = test system: B. subtilis 168; format: cell-based; details: 168, 24 h
Description: MICs were measured in triplicate by microbroth dilution. An overnight culture of B. subtilis 168 (DSMZ German Collection of Microorganisms and Cell Cultures GmbH) was inoculated at 5 × 10^5 CFU/mL in cation-adjusted Mueller–Hinton broth (MHB II) with or without 15 mM or 100 mM CaCl2. Serial two-fold peptide dilutions (128 - 1 µg/mL for analogues and 16 - 0.25 µg/mL for daptomycin) were incubated in polypropylene U-bottom 96-well plates (200 µL final volume) at 37 °C for 24 h. MIC was the lowest concentration at which no growth was observed. Optical density measurements at 620 nm were performed using a Thermo Scientific Multiskan FC (Thermo Fisher Scientific Inc., Paisley, UK). MIC was determined from the lowest concentration at which no tubidity was observed, using an untreated positive growth control, and a broth-only sterility control as references.

[2] = TLC precursor-binding assay with lipid II; design: key to Lipid II (TLC binding): “+” indicates binding confirmed; “-” indicates no binding; “~” indicates potential binding with absence of precursor band; details: for Lipid II (TLC binding): peptide 0.5, 1, 2 equiv. (nisin 0.1, 0.5, 1 equiv.) with lipid II in Tris·HCl pH 7.5, 50 mM CaCl2, 1 h, silica TLC; for binding to lipid II in TLC assay (in words): lipid II spot on TLC after incubation, PMA staining in Figure S6
Description: (§1) Lipid II and undecaprenyl phosphate (C55-P) (1 equiv., 30 µL) in Tris•HCl buffer (0.2% Triton X-100, 26 mM MgCl2, and 50 mM CaCl2 at pH 7.5) were incubated with the peptides (0.5, 1, 2 equiv.) or nisin (0.1, 0.5, 1 equiv.) in 30 µL water for 1 h. The reaction was then extracted with ^tBuOH/6 M PyOAc (2/1 v/v, 100 µL) and the organic phase was dried using an Eppendorf vacuum centrifuge 5301 (Fisher Scientific, Loughborough, UK) under reduced pressure. The solid was redissolved in CHCl3/MeOH (1/1 v/v, 30–60 µL) for spotting onto the TLC plates. In addition to the peptide–lipid mixtures, a control of each peptide/nisin with 30 µL buffer, and a control of each lipid with 30 µL HPLC-grade water were also incubated and subjected to the same workup. Silica TLC plates were run in a CHCl3/MeOH/H2O/NH3 (88/48/10/1 v/v) solvent system and stained using iodine vapour, phosphomolybdic acid (PMA), or KMnO4 stain, as well as visualisation at 254 nm and 365 nm.

[3] = TLC precursor-binding assay with C55-P; design: key to C55-P (TLC binding): “+” indicates binding confirmed; “-” indicates no binding; “~” indicates potential binding with absence of precursor band; details: for C55-P (TLC binding): peptide 0.5, 1, 2 equiv. with C55-P in Tris·HCl pH 7.5, 50 mM CaCl2, 1 h, silica TLC; for C55-P spot on TLC after incubation with peptide (in words): absence of C55-P spot = potential indicator of binding, KMnO4 staining in Figure S5
Description: as §1

CCCCCCCCCC(=O)N[C@@H](CC(=O)O)C(=O)N[C@H]1CNC(=O)[C@@H]2CCCN2C(=O)[C@H](C(C)C)NC(=O)[C@@H](CC(=O)O)NC(=O)CNC(=O)[C@H](CC(=O)O)NC(=O)[C@H](CC(=O)O)NC(=O)[C@H](CCCCN)NC(=O)[C@@H](C(C)C)NC1=O [Peptide M1] (Decanoyl-D[Dap][dV]KDDG[dD]VP; lactam 2-C)
MIC + Ca^2+ [1]: 128 µg/mL
MIC − Ca^2+ [1]: 128 µg/mL (≈ 108 µM)
Lipid II (TLC binding) [2]: -
C55-P (TLC binding) [3]: -

CCCCCCCCCC(=O)N[C@@H](CC(=O)O)C(=O)N[C@H]1CNC(=O)[C@@H]2CCCN2C(=O)[C@H](C(C)C)NC(=O)[C@@H](CC(=O)O)NC(=O)CNC(=O)[C@H](CC(=O)O)NC(=O)CNC(=O)[C@H](CC(=O)O)NC(=O)[C@H](CCCCN)NC(=O)[C@@H](C(C)C)NC1=O [Peptide M2] (Decanoyl-D[Dap][dV]KDGDG[dD]VP; lactam 2-C)
MIC + Ca^2+ [1]: 128 µg/mL
MIC − Ca^2+ [1]: 128 µg/mL (≈ 103 µM)
Lipid II (TLC binding) [2]: -
C55-P (TLC binding) [3]: -

CCCCCCCCCC(=O)NC[C@@H](C)C(=O)NCC(=O)N[C@H](CCC(=O)O)C(=O)N[C@@H](Cc1ccc(O)cc1)C(=O)N[C@@H]1C(=O)N[C@H]([C@H](C)CC)C(=O)N[C@@H](CC(=O)O)C(=O)N[C@@H](CC(=O)O)C(=O)N2CCC[C@H]2C(=O)NCC(=O)N[C@@H](CC(=O)O)C(=O)N[C@@H](CCC(=O)O)C(=O)N(C)CC(=O)O[C@@H]1C [Peptide C6] (Decanoyl-[β2hAla(R)]G[dE]YT[dI]DDPGDE[Sar]; ester 5-C)
MIC + Ca^2+ [1]: 128 µg/mL
MIC − Ca^2+ [1]: 128 µg/mL (≈ 85.2 µM)
Lipid II (TLC binding) [2]: -
C55-P spot on TLC after incubation with peptide (in words) [3]: no longer visible
C55-P (TLC binding) [3]: ~

CCCCCCCCCC(=O)NC[C@@H](C)C(=O)NCC(=O)N[C@H](CCC(=O)O)C(=O)N[C@@H](Cc1ccc(O)cc1)C(=O)N[C@@H]1C(=O)N[C@H]([C@H](C)CC)C(=O)N[C@@H](CC(=O)O)C(=O)N[C@@H](CC(=O)O)C(=O)N2CCC[C@H]2C(=O)NCC(=O)N[C@@H](CCC(=O)O)C(=O)N[C@@H](CC(=O)O)C(=O)N(C)CC(=O)O[C@@H]1C [Peptide C8] (Decanoyl-[β2hAla(R)]G[dE]YT[dI]DDPGED[Sar]; ester 5-C)
MIC + Ca^2+ [1]: 128 µg/mL
MIC − Ca^2+ [1]: 128 µg/mL (≈ 85.2 µM)
Lipid II (TLC binding) [2]: -
C55-P (TLC binding) [3]: -

CCCCCCCCCC(=O)NC[C@@H](C)C(=O)NCC(=O)N[C@H](CCC(=O)O)C(=O)N[C@@H](Cc1ccc(O)cc1)C(=O)N[C@@H]1C(=O)N[C@H]([C@H](C)CC)C(=O)N[C@@H](CC(=O)O)C(=O)N[C@@H](CC(=O)O)C(=O)N2CCC[C@H]2C(=O)NCC(=O)N[C@H](CCC(=O)O)C(=O)N[C@@H](CC(=O)O)C(=O)N(C)CC(=O)O[C@@H]1C [Peptide C7b] (Decanoyl-[β2hAla(R)]G[dE]YT[dI]DDPG[dE]D[Sar]; ester 5-C)
MIC + Ca^2+ [1]: 128 µg/mL

CCCCCCCCCC(=O)NC[C@@H](C)C(=O)NCC(=O)N[C@H](CCC(=O)O)C(=O)N[C@@H](Cc1ccc(O)cc1)C(=O)N[C@@H]1C(=O)N[C@H]([C@H](C)CC)C(=O)N[C@@H](CC(=O)O)C(=O)N[C@@H](CC(=O)O)C(=O)N2CCC[C@H]2C(=O)NCC(=O)N[C@@H](CCC(=O)O)C(=O)N[C@@H](CCC(=O)O)C(=O)N(C)CC(=O)O[C@@H]1C [Peptide C2c] (Decanoyl-[β2hAla(R)]G[dE]YT[dI]DDPGEE[Sar]; ester 5-C)
Lipid II (TLC binding) [2]: -
C55-P spot on TLC after incubation with peptide (in words) [3]: no longer visible

CCCCCCCCCC(=O)N[C@@H](CC(=O)O)C(=O)N[C@H]1CNC(=O)[C@@H]2CCCN2C(=O)[C@H](C(C)C)NC(=O)CNC(=O)[C@@H](CC(=O)O)NC(=O)CNC(=O)[C@H](CC(=O)O)NC(=O)[C@H](CC(=O)O)NC(=O)[C@H](CCCCN)NC(=O)[C@@H](C(C)C)NC1=O [Peptide M4] (Decanoyl-D[Dap][dV]KDDG[dD]GVP; lactam 2-C)
MIC + Ca^2+ [1]: 128 µg/mL
MIC − Ca^2+ [1]: 128 µg/mL (≈ 103 µM)
Lipid II (TLC binding) [2]: -
C55-P (TLC binding) [3]: -

CCCCCCCCCC(=O)NC[C@@H](C)C(=O)NCC(=O)N[C@H](CCC(=O)O)C(=O)N[C@@H](Cc1ccc(O)cc1)C(=O)N[C@@H]1C(=O)N[C@H]([C@H](C)CC)C(=O)N[C@@H](CC(=O)O)C(=O)N[C@@H](CC(=O)O)C(=O)N2CCC[C@H]2C(=O)NCC(=O)N[C@H](CCC(=O)O)C(=O)N[C@@H](CC(=O)O)C(=O)N(C)CC(=O)O[C@@H]1C [Peptide C7a] (Decanoyl-[β2hAla(R)]G[dE]YT[dI]DDPG[dE]D[Sar]; ester 5-C)
MIC + Ca^2+ [1]: 128 µg/mL
MIC − Ca^2+ [1]: 128 µg/mL (≈ 85.2 µM)
binding to lipid II in TLC assay (in words) [2]: lack of binding
Lipid II (TLC binding) [2]: -
C55-P (TLC binding) [3]: -

Nisin [reference compound]
binding to lipid II in TLC assay (in words) [2]: nisin-lipid II binding; also recorded: Positive binding
Lipid II (TLC binding) [2]: +

CCCCCCCCCC(=O)NC[C@@H](C)C(=O)NCC(=O)N[C@H](CCC(=O)O)C(=O)N[C@@H](Cc1ccc(O)cc1)C(=O)N[C@@H]1C(=O)N[C@H]([C@H](C)CC)C(=O)N[C@@H](CC(=O)O)C(=O)N[C@@H](CC(=O)O)C(=O)N2CCC[C@H]2C(=O)NCC(=O)N[C@@H](CCC(=O)O)C(=O)N[C@@H](CCC(=O)O)C(=O)N(C)CC(=O)O[C@@H]1C [Peptide C2a] (Decanoyl-[β2hAla(R)]G[dE]YT[dI]DDPGEE[Sar]; ester 5-C)
MIC + Ca^2+ [1]: 128 µg/mL
MIC − Ca^2+ [1]: 128 µg/mL (≈ 84.4 µM)
Lipid II (TLC binding) [2]: -
C55-P spot on TLC after incubation with peptide (in words) [3]: no longer visible
C55-P (TLC binding) [3]: ~

CCCCCCCCCC(=O)NC[C@@H](C)C(=O)NCC(=O)N[C@H](CCC(=O)O)C(=O)N[C@@H](Cc1ccc(O)cc1)C(=O)N[C@@H]1C(=O)N[C@H]([C@H](C)CC)C(=O)N[C@@H](CC(=O)O)C(=O)N[C@@H](CC(=O)O)C(=O)N2CCC[C@H]2C(=O)NCC(=O)N[C@H](CC(=O)O)C(=O)N[C@@H](CCC(=O)O)C(=O)N(C)CC(=O)O[C@@H]1C [Peptide C5] (Decanoyl-[β2hAla(R)]G[dE]YT[dI]DDPG[dD]E[Sar]; ester 5-C)
MIC + Ca^2+ [1]: 128 µg/mL
MIC − Ca^2+ [1]: 128 µg/mL (≈ 85.2 µM)
Lipid II (TLC binding) [2]: -
C55-P (TLC binding) [3]: -

CCCCCCCCCC(=O)NC[C@@H](C)C(=O)NCC(=O)N[C@H](CCC(=O)O)C(=O)N[C@@H](Cc1ccc(O)cc1)C(=O)N[C@@H]1C(=O)N[C@H]([C@H](C)CC)C(=O)N[C@@H](CC(=O)O)C(=O)N[C@@H](CC(=O)O)C(=O)N2CCC[C@H]2C(=O)NCC(=O)N[C@@H](CC(=O)O)C(=O)N[C@@H](CC(=O)O)C(=O)N(C)CC(=O)O[C@@H]1C [Peptide C4] (Decanoyl-[β2hAla(R)]G[dE]YT[dI]DDPGDD[Sar]; ester 5-C)
MIC + Ca^2+ [1]: 128 µg/mL
MIC − Ca^2+ [1]: 128 µg/mL (≈ 86 µM)
Lipid II (TLC binding) [2]: -
C55-P (TLC binding) [3]: -

CCCCCCCCCC(=O)N[C@@H](CC(=O)O)C(=O)N[C@H]1CNC(=O)[C@@H]2CCCN2C(=O)[C@H](C(C)C)NC(=O)CNC(=O)[C@H](CC(=O)O)NC(=O)CNC(=O)[C@H](CC(=O)O)NC(=O)[C@H](CC(=O)O)NC(=O)[C@H](CCCCN)NC(=O)[C@@H](C(C)C)NC1=O [Peptide M5] (Decanoyl-D[Dap][dV]KDDGDGVP; lactam 2-C)
MIC + Ca^2+ [1]: 128 µg/mL
MIC − Ca^2+ [1]: 128 µg/mL (≈ 103 µM)
Lipid II (TLC binding) [2]: -
C55-P (TLC binding) [3]: -

CCCCCCCCCC(=O)NC[C@@H](C)C(=O)NCC(=O)N[C@H](CCC(=O)O)C(=O)N[C@@H](Cc1ccc(O)cc1)C(=O)N[C@@H]1C(=O)N[C@H]([C@H](C)CC)C(=O)N[C@@H](CC(=O)O)C(=O)N[C@@H](CC(=O)O)C(=O)N2CCC[C@H]2C(=O)NCC(=O)N[C@H](CCC(=O)O)C(=O)N[C@@H](CCC(=O)O)C(=O)N(C)CC(=O)O[C@@H]1C [Peptide C1b] (Decanoyl-[β2hAla(R)]G[dE]YT[dI]DDPG[dE]E[Sar]; ester 5-C)
MIC + Ca^2+ [1]: 128 µg/mL
Lipid II (TLC binding) [2]: -
C55-P spot on TLC after incubation with peptide (in words) [3]: no longer visible
C55-P (TLC binding) [3]: ~

CCCCCCCCCC(=O)NC[C@@H](C)C(=O)NCC(=O)N[C@H](CCC(=O)O)C(=O)N[C@@H](Cc1ccc(O)cc1)C(=O)N[C@@H]1C(=O)N[C@H]([C@H](C)CC)C(=O)N[C@@H](CC(=O)O)C(=O)N[C@@H](CC(=O)O)C(=O)N2CCC[C@H]2C(=O)NCC(=O)N[C@@H](CCC(=O)O)C(=O)N[C@@H](CCC(=O)O)C(=O)N(C)CC(=O)O[C@@H]1C [Peptide C2b] (Decanoyl-[β2hAla(R)]G[dE]YT[dI]DDPGEE[Sar]; ester 5-C)
Lipid II (TLC binding) [2]: -
C55-P spot on TLC after incubation with peptide (in words) [3]: no longer visible
